From patent publication US20090111804A1, “ARYLINDENOPYRIMIDINES AND THEIR USE AS ADENOSINE A2a” (priority 2007, published 2009)

What was measured:
A1 = target: T1, A1 (Homo sapiens, UniProt P30542); test: A1 cell-based functional assay
T1 sequence (P30542 1-326): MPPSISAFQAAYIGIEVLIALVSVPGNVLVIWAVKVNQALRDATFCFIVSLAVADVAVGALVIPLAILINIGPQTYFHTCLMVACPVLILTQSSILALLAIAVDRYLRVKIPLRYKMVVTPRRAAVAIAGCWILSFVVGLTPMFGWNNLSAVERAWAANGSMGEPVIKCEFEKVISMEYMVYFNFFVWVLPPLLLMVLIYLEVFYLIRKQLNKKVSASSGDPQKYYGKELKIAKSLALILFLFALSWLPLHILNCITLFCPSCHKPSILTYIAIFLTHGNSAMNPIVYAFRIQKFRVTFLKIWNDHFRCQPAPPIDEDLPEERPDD

[1] = target: T2, human adenosine A2a receptors (Homo sapiens, UniProt P29274); test: Adenosine A2a receptor cell-based functional assay (cAMP-inducible beta-galactosidase reporter); conditions: CHO-K1 cells overexpressing human adenosine A2a receptors; antagonist assay with 50 nM NECA
T2 construct: expressed in transfected cells; host or cells: CHO-K1
T2 sequence (P29274 whole entry): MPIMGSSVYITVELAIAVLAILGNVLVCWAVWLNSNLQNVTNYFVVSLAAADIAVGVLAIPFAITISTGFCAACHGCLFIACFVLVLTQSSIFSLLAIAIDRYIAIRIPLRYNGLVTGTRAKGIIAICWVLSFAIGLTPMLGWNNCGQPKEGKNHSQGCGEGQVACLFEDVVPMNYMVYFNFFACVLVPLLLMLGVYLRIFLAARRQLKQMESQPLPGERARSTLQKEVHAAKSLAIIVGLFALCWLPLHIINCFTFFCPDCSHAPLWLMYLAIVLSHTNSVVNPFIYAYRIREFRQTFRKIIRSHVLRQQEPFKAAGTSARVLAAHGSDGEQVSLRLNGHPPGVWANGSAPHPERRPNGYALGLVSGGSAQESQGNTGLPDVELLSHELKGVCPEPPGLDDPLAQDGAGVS
Protocol: Nonspecific binding was determined by […] NECA. […] Data was analyzed in Microsoft Excel and GraphPad Prism programs. […] For agonist assay, adenosine A2a receptor agonist NECA was subsequently added and cell incubated at 37° C., 5% CO2 for 5 hrs before stopping reaction. In the case of antagonist assay, cells were incubated with antagonists for 5 minutes at R.T. followed by addition of 50 nM NECA. Cells were then incubated at 37° C., 5% CO2 for 5 hrs before stopping experiments by washing cells with PBS twice. […] Color was allowed to develop at 37° C. for 1 h or until reasonable signal appeared. […] Data was analyzed in Microsoft Excel and GraphPad Prism programs.

Compound | Ki (A1) [nM] | Ki [1] [nM]
Nc1nc(-c2ccccc2)c2c(n1)-c1cc(OCCN3CCOCC3)ccc1C2=O [A, 2-Amino-8-(2-morpholin-4-yl-ethoxy)-4-phenyl-indeno[1,2-d]pyrimidin-5-one] | 49.6 | 
CC1CCC(C)N1Cc1ccc2c(c1)-c1nc(N)nc(-c3ccccc3)c1C2=O (centres unmarked) [B, 2-Amino-8-(2,5-dimethyl-pyrrolidin-1-ylmethyl)-4-phenyl-indeno[1,2-d]pyrimidin-5-one] | 37.3 | 13.1
Nc1nc(-c2ccccc2)c2c(n1)-c1cc(Cc3cccnc3)ccc1C2=O [C, 2-Amino-4-phenyl-8-pyridin-3-ylmethyl-indeno[1,2-d]pyrimidin-5-one] | 4.4 | 0.4
